Paper PMC8578336, “Neuroprotection of retinal ganglion cells by the sigma-1 receptor agonist pridopidine in models of experimental glaucoma” (Scientific Reports, 2021)
Where a name gives a salt, the structure may show the parent alone. Read-outs that look alike come from different tables or passages of the source.

Columns and labels:
S1R = settings: cited from earlier work
[1] = molecular target: empopamil binding protein (EBP); design: method as in PMID 11377189; settings: cited from earlier work
[2] = system: retinal ganglion cells (RGCs); settings: for Loss of RBPMS-positive RGCs, lasered vs control eye (difference): 14 days; for Number of RGCs per retinal area, mean: 125/55 criterion
Procedure: (§1) The laser coagulation (LC) model of experimental glaucoma was utilized in Wistar rats. Additional benefits of using this model are avoiding idiosyncratic features inherent to a single model and increasing the likelihood of future translatability to human glaucoma[28],[29]. Both models utilize elevation of IOP, but to different degrees and with different time courses. Unilateral induction of IOP elevation was performed twice, at day 0 and day 7. […] IOP was measured at baseline, and after laser photocoagulation on days 1, 4, 7, 8, and 14 (Fig. 3a). At the end of the study, RGC numbers were assessed by immunostaining (Fig. 3b).
The number of RGCs was quantified using immunofluorescent staining for RNA-binding protein with multiple splicing (RBPMS), an RGC-specific marker, followed by stereological analysis of the entire retina[30] (Fig. 3c).
IOP was measured with a TonoLab tonometer.
Compounds were administered daily by oral gavage. On day 14 rats were sacrificed by transcardial perfusion, first with 0.9% NaCl solution, then with 4% PFA in 0.1 M phosphate buffer, pH 7.4. Eyes and optic nerves were collected for immunohistochemical analysis.
Retinal flat-mounts were immunostained with rabbit anti-RBPMS (PhosphoSolutions) and DAPI nuclear stain. Total number of RBPMS-positive cells was estimated using stereology as previously described.

human lymphoblasts [3] = settings: 5 μM pretreatment 24 h; H2O2 0.1 mM 6 h; p < 0.0001
Procedure: (§2) ROS levels were quantified by co-staining with CellRox and DAPI. (a) Representative image and (b) quantification. […] Data is the mean ± SEM. *p < 0.05, ***p < 0.001, ****p < 0.0001 by two-way ANOVA with a Tukey’s multiple comparisons in (b), by non-parametric Mann–Whitney in (d), or Kruskal–Wallis test in (c) and (e). Full-length blots are presented in Supplementary Fig. 2.
(§3) Lymphoblasts (Corriel Institute, GM02174) were grown in RPMI medium containing 10% FBS, 2 mM L-glutamax, and 100 U/mL penicillin–streptomycin and passaged every 5–6 days. […] S1R knockdown was achieved using S1R-directed siRNA duplexes (Origene, cat no: SR426072). Transfection with Polyplus JETPRIME transfection protocol was performed 48 h before experiments. S1R knockdown was assessed by immunoblot.

[4] = system: mouse striatal neuronal cultures; settings: 1 μM, 24 h
Procedure: Previous studies have shown a regulatory role of the S1R in mitochondrial function in retinal ganglion cells under stress[36]–[39]. […] (b) Quantification of OCR rate. […] Mitochondrial membrane potential was measured in isolated striatal mitochondria using Rhodamine123 (d) and quantified (e). […] Data are the mean ± SEM. All experiments were run in triplicates. *p < 0.05, **p < 0.01 by non-parametric Kruskal–Wallis test or Mann–Whitney test (in e).
Striatal neurons were isolated as previously described[78] from embryos at gestational day 16–17. […] Pridopidine was added for 24 h.

human lymphoblasts [5] = settings: 5 µM, 24 h
Procedure: as §2
Mitochondrial function was then assessed with the MMP-dependent probe TMRE (tetramethylrhodamine ethyl ester).
as §3

optic nerve axons = settings: for Loss of optic nerve axons vs. control eye (difference): 14 days; for Number of optic nerve axons, mean: 125/55 criterion
Procedure: as §1
Neuroprotective preservation of visual function in glaucoma and other optic neuropathies depends not only on preservation of cell bodies, but also on maintaining connectivity between the eye and the brain. Connectivity is preserved by protecting RGC axons[31]–[33], i.e. axoprotection. To study this, the number of optic nerve axons per optic nerve area was compared between different treatment groups (Fig. 4a,b). […] Compounds were administered daily by oral gavage. On day 14 rats were sacrificed by transcardial perfusion, first with 0.9% NaCl solution, then with 4% PFA in 0.1 M phosphate buffer, pH 7.4. Eyes and optic nerves were collected for immunohistochemical analysis.
Optic nerves were postfixed in 4% PFA (in 0.1 M phosphate buffer, pH 7.4), placed in 1% osmium, dehydrated in ascending alcohol concentrations, and placed in 1% uranyl acetate in 100% ethanol for 1 h[76],[77]. Optic nerves were embedded in epoxy resin mixture at 60 °C for 48 h and 1 µm sections prepared. Axon number was estimated using stereology, as previously described.

[6] = system: retinal ganglion cells (RGCs); settings: for RGC loss (%): OD vs OS eye, mean ± SEM
Procedure: Hypertonic saline injection (HSI) was performed on day 0 and day 7 into the episcleral veins of the right eye of pigmented Brown Norway rats in order to create a sustained increase of IOP.
Over the course of the study, animals were clinically evaluated daily, and IOP and body weight measured weekly (Fig. 1a).
The number of RGCs was quantified using immunofluorescent staining for the RGC marker brain-specific homeobox/POU domain protein 3A (Brn-3a), followed by image analysis. RGCs were counted in one medial and one distal area in each retinal quadrant, up to eight regions per retina (Fig. 1c, Supp Table 4). The percent of RGC loss was calculated by comparing the number of RGC counts per retina in the OD eye to that in the OS eye. […] Rats were sedated with ketamine and xylazine (40–80 and 5–10 mg/kg, respectively), kept warm and eyes moist to avoid desiccation during the procedure. Eye surface was treated with erythromycin (0.5%). On Days 0 and 7, hypertonic saline solution (250 μL, NaCl, 1.8–2.0 M) was injected into the limbal vascular plexus via different episcleral veins in the OHT eye.
Eyes were immediately enucleated following CO2 euthanasia and fixed in paraformaldehyde (PFA, 4%) at 4 °C for 24 h, then dissected in PBS. Retinas were permeabilized in PBS + 0.5% Triton X-100 for 15 min, frozen at − 80 °C for 15 min, then rinsed in PBS-0.5% Triton. […] Four radial cuts were made in the retina and it was flat-mounted. Two regions of interest (medial and distal) were acquired in each quadrant with fluorescent microscopy, and RGCs counted using ImageJ.

[7] = system: isolated striatal mitochondria; settings: 30 mg/kg daily for 45 days; p = 0.0013
Procedure: (§4) (b) Quantification of OCR rate. […] Mitochondrial membrane potential was measured in isolated striatal mitochondria using Rhodamine123 (d) and quantified (e). […] Data are the mean ± SEM. All experiments were run in triplicates. *p < 0.05, **p < 0.01 by non-parametric Kruskal–Wallis test or Mann–Whitney test (in e).

striatal neurons = settings: 1 μM, 24 h; NMDA 10 µM + glycine 20 µM 15 min; p = 0.0072
Procedure: as §4
Striatal neurons were isolated as previously described[78] from embryos at gestational day 16–17.

Kappa opioid receptor = molecular target: Kappa opioid receptor; design: method as in PMID 16125682; settings: cited from earlier work

Structure (SMILES): COc1ccc(CCN2CCN(CCCc3ccccc3)CC2)cc1OC [SA4503, cutamesine dihydrochloride, reference compound]
- Ki (S1R): 17.4 nM
- Ki [1]: 1.72 nM

Structure (SMILES): CCCN1CCC(c2cccc(S(C)(=O)=O)c2)CC1 [Pridopidine]
- Loss of RBPMS-positive RGCs, lasered vs control eye (difference) ([2]; 3 mg/kg daily oral): 5.2%
- Number of RGCs per retinal area, mean ([2]; 3 mg/kg, control eye): 1404
- Number of RGCs per retinal area, mean ([2]; 3 mg/kg, lasered eye): 1315
- Loss of RBPMS-positive RGCs, lasered vs control eye (difference) ([2]; 30 mg/kg daily oral): 7.7%
- Number of RGCs per retinal area, mean ([2]; 30 mg/kg, control eye): 1444
- Number of RGCs per retinal area, mean ([2]; 30 mg/kg, lasered eye): 1336
- Loss of RBPMS-positive RGCs, lasered vs control eye (difference) ([2]; 60 mg/kg daily oral): 13.9%
- Number of RGCs per retinal area, mean ([2]; 60 mg/kg, control eye): 1417
- Number of RGCs per retinal area, mean ([2]; 60 mg/kg, lasered eye): 1198
- Ki (S1R): 57 nM
- H2O2-induced ROS production (CellRox staining) (human lymphoblasts [3]): significantly ameliorated
- ATP production ([4]; p = 0.0015): significantly increases
- Maximal mitochondrial respiration ([4]; p = 0.0061): significantly increases
- Basal mitochondrial respiration ([4]; p = 0.0082): significantly increases
- H2O2-induced reduction of MMP (TMRE) (human lymphoblasts [5]; S1R genetically silenced with siRNA): unable to rescue MMP
- H2O2-induced reduction of MMP (TMRE) (human lymphoblasts [5]; S1R-expressing cells, p = 0.0002): rescues this effect
- Axoprotection of optic nerves compared to the vehicle group (optic nerve axons; 3 mg/kg): 69%
- Loss of optic nerve axons vs. control eye (difference) (optic nerve axons; 3 mg/kg daily oral, p = 0.006): 8.6%
- Number of optic nerve axons, mean (optic nerve axons; 3 mg/kg, control eye): 394
- Number of optic nerve axons, mean (optic nerve axons; 3 mg/kg, lasered eye): 358
- Axoprotection of optic nerves compared to the vehicle group (optic nerve axons; 30 mg/kg): 45%
- Loss of optic nerve axons vs. control eye (difference) (optic nerve axons; 30 mg/kg daily oral, p = 0.04): 15%
- Number of optic nerve axons, mean (optic nerve axons; 30 mg/kg, control eye): 433
- Number of optic nerve axons, mean (optic nerve axons; 30 mg/kg, lasered eye): 363
- Axoprotection of optic nerves compared to the vehicle group (optic nerve axons; 60 mg/kg): 74%
- Loss of optic nerve axons vs. control eye (difference) (optic nerve axons; 60 mg/kg daily oral, p = 0.002): 7.6%
- Number of optic nerve axons, mean (optic nerve axons; 60 mg/kg, control eye): 395
- Number of optic nerve axons, mean (optic nerve axons; 60 mg/kg, lasered eye): 365
- RGC loss (%) ([6]; 3 mg/kg daily oral gavage day 1-41): 25 ± 7%
- Mean RGC count/animal ([6]; 3 mg/kg, OD eye): 105.25
- Mean RGC count/animal ([6]; 3 mg/kg, OS eye): 144.75
- RGC loss (%) ([6]; 30 mg/kg daily oral gavage day 1-41): 21 ± 6%
- Mean RGC count/animal ([6]; 30 mg/kg, OD eye): 122.78
- Mean RGC count/animal ([6]; 30 mg/kg, OS eye): 158.56
- RGC neuroprotection compared to vehicle control ([6]; 30 mg/kg, p = 0.019): 50%
- RGC loss (%) ([6]; 60 mg/kg daily oral gavage day 1-41): 7 ± 9%
- Mean RGC count/animal ([6]; 60 mg/kg, OD eye): 116.50
- Mean RGC count/animal ([6]; 60 mg/kg, OS eye): 130.40
- RGC neuroprotection compared to vehicle control ([6]; 60 mg/kg, p = 0.005): 83%
- MMP in isolated mitochondria from treated mice [7]: increase in MMP
- Mitochondrial membrane potential (MMP) after NMDA plus glycine (striatal neurons): rescues the decrease in MMP

Structure (SMILES): CC(C)=CCN1CC[C@]2(C)c3cc(O)ccc3C[C@H]1[C@H]2C [PTZ, (+)pentazocine]
- Ki (Kappa opioid receptor): 2.2 nM
